Where two headings read alike, the source gives them in different places.
Key:
[1] = test system: cAMP-dependent protein kinase (PKA); test: Test for 3',5'-cAMP-dependent protein kinase inhibition (PKA catalytic subunit, Kemptide substrate); format: biochemical; conditions: 40 μM ATP, 15' at 30° C.
Method: Test for 3',5'-cAMP-dependent protein kinase inhibition
The catalytic subunit of the cAMP-dependent protein kinase (PKA) (Sigma) was reconstituted as described by Sigma (Sigma Chemical Co., St. Louis, Mo. USA). The enzyme activity was measured using Kemptide (Sigma) (Leu-Arg-Arg-Ala-Ser-Leu-Gly) as a substrate. […] The reaction was initiated by addition of gamma-^32 P ATP (40 μM) After 15'at 30° C., an aliquot part was added to p81 ion exchanger (2×2 cm; Whatman Paper Ltd., Great Britain), immersed in 75 mM H3 PO4, washed, dried, and the incorporation of ^32 P was determined by means of a liquid scintillation counter.

hela cells = test: Test for inhibition of EGF-stimulated proliferation of tumor cells (hela, MTT); format: cell-based; conditions: 65 h; for inhibition at 5 µg/mL / inhibition at 25 µg/mL / inhibition at 1 µg/mL / inhibition at 0.2 µg/mL: Homo sapiens; for inhibition at 5 µg/mL: read-out: EGF stimulation % inhibition at 5 μg/ml; for inhibition at 25 µg/mL: read-out: EGF stimulation % inhibition at 25 μg/ml; for inhibition at 1 µg/mL: read-out: EGF stimulation % inhibition at 1 μg/ml; for inhibition at 0.2 µg/mL: read-out: EGF stimulation % inhibition at 0.2 μg/ml
Method: Test for inhibition of EGF- or bFGF-stimulated proliferation of tumor cells
2×10^3 hela cells per well were inoculated into a 96-well microtiter plate (in RPMI+1% FCS ). After 24 h, the medium was changed to RPMI+0.5% FCS and various concentrations of the test substance±EGF (0.1 nM)/bFGF (1 ng/ml) were added. Each group consisted of 4 wells; the control was only incubated±growth factor. After 65 h, 50 μof MTT (2.5 mg/ml in PBS) were added and the supernatant was removed after 7 h. The colored substance formed by the living cells was dissolved by addition of 100 μl of DMSO/well. The absorption was measured at 492 nm for each well with the aid of a 340 CC Multiscan photometer (Flow).
The mean value is formed from the 4 wells of a group and the absorption difference between the controls± growth factor (A) and between the groups with test substance± growth factor (B) is determined.

[2] = target: T1, EGF receptor tyrosine kinase (EGFRTK) (Homo sapiens, UniProt P00533); test: biochemical
T1 construct: This cell line expresses a large number of EGF receptors which have tyrosine kinase activity on the cell surface; endogenous in cells; host or cells: A 431 (ATCC CRL 1555), membrane preparation
T1 sequence (P00533 25-1210): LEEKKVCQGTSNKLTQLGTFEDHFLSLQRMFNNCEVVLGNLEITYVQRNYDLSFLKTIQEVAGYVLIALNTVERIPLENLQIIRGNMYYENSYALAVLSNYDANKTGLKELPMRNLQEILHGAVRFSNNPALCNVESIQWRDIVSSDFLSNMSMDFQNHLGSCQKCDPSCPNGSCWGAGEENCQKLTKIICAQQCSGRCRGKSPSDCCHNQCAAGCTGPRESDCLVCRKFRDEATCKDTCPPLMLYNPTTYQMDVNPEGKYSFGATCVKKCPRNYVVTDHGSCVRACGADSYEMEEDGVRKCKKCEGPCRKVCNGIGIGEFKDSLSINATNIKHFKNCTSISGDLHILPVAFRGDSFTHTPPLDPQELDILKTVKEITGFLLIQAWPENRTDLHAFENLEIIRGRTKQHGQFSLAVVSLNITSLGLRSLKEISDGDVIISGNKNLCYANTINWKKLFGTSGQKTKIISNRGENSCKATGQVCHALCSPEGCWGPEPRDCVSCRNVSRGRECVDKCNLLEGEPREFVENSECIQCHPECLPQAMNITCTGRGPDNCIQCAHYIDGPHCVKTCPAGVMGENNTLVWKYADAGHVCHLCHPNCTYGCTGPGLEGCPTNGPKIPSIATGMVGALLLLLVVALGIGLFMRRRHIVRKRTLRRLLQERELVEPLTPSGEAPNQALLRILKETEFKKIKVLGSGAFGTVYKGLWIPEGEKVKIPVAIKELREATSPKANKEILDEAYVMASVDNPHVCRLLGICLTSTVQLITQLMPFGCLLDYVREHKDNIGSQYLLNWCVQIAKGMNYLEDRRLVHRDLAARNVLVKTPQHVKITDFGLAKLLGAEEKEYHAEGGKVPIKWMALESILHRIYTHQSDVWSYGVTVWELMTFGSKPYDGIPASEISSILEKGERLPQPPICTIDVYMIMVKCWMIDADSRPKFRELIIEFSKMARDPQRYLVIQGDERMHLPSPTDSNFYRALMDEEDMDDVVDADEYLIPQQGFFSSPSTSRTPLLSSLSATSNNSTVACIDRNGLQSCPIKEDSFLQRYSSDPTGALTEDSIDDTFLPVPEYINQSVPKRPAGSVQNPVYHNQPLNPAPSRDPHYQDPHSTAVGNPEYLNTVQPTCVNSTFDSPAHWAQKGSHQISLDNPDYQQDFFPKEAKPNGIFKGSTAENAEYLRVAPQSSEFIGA
Method: Test for EGF receptor tyrosine kinase inhibition
This cell line expresses a large number of EGF receptors which have tyrosine kinase activity on the cell surface. The cells were cultured almost to confluence, washed with PBS (phosphate buffered saline, pH 7.2), scraped off the culture flask and incubated at 4° C. for 1 h, subjected to 20 strokes in a Potter and centrifuged at 1000 g for 30'. The supernatant was centrifuged at 20000 g for a further 20 min and the pellet was taken up in 100 μl per 1×10^6 cells as the membrane preparation.
The tyrosine kinase activity of the EGF receptor (EGFRTK) was measured using poly(Glu, Ala, Tyr), 6:3:1, as the substrate. […] After 15'at 30° C., the substrate was precipitated with 10% TCA (trichloroacetic acid), filtered on a millititer filtration plate (Millipore Corporation, Massachusetts, USA), washed and dried. The incorporation of ^32 P was determined by means of a liquid scintillation counter.

[3] = A 431 membranes, 1000 nM EGF, 32 μM ATP, 15' at 30° C., max. 51 μg/ml, read-out: EGFRTK IC50 (converted)
[4] = 5 μg/ml, hela cells, EGF 0.1 nM, tox = toxic
[5] = 1 μg/ml, hela cells, EGF 0.1 nM, tox = toxic
[6] = 25 μg/ml, hela cells, EGF 0.1 nM, tox = toxic

| PKA % inhib. at 40 μg/ml [1] [%] | IC50 [2, 3] [µM] | Compound | EGF stimulation % inhibition at 25 μg/ml (hela cells; [6]) | inhibition at 5 µg/mL (hela cells; [4]) [%] | also measured |
| --- | --- | --- | --- | --- | --- |
|  | 2.79 | O=C1C=CC(=O)c2cc3ccccc3cc21 [1,4-Anthraquinone] |  |  | EGF stimulation % inhibition at 5 μg/ml (hela cells; [4]): tox; inhibition at 1 µg/mL (hela cells; [5]): 33% |
| 71 | 4.64 | Cc1c(O)ccc(O)c1C [2,3-Dimethylhydroquinone] | tox | 17 |  |
|  | 55.1 | Oc1ccc(N=Cc2cc(O)ccc2O)cc1 [2,5-Dihydroxy-N-(4'-hydroxyphenyl)benzaldimine] | tox | 39 |  |
|  | 89.3 | Oc1ccc(O)c(C=Nc2ccccc2)c1 [2,5-Dihydroxy-N-phenylbenzaldimine] | tox | 24 |  |
| 46 | 8.86 | Cc1cc(O)ccc1O [2-Methylhydroquinone] |  | 66 | inhibition at 1 µg/mL (hela cells; [5]): 21% |
| 25 | 5.53 | Oc1ccc(O)c(-c2ccccc2)c1 [2-Phenylhydroquinone] |  | 66 | inhibition at 1 µg/mL (hela cells; [5]): 11% |
| 0 | 77.9 | O=C(O)c1cccc(N=Cc2cc(O)ccc2O)c1 [3-[-(2',5'-Dihydroxybenzylidene)amino]benzoic acid] | tox | 44 |  |
| 61 | 17.8 | O=C(O)c1ccc(NCc2cc(O)ccc2O)cc1 [4-[N-(2',5'-Dihydroxybenzyl)amino]benzoic acid] | tox | 36 |  |
| 0 | 27.3 | O=C(O)c1cc(N=Cc2cc(O)ccc2O)ccc1O [5-[N-(2',5'-Dihydroxybenzylidene)amino]-2-hydroxybenzoic acid] | tox | 51 |  |
| 0 | 67.5 | O=C(O)c1ccc(N=Cc2cc(O)ccc2O)cc1 [Ex. 1, 4-[N-(2',5'-Dihydroxybenzylidene)amino]benzoic acid] | tox | 48 |  |
| 0 | 13.1 | CN=Cc1cc(O)ccc1O [Ex. 2, 2,5-Dihydroxy-N-methylbenzaldimine] | tox | 21 |  |
| 0 | 7.48 | Oc1ccc(O)c(C=NCc2ccccc2)c1 [Ex. 3, N-Benzyl-2,5-dihydroxybenzaldimine] | tox | 28 |  |
| 63 | 7.66 | CN(C)N=Cc1cc(O)ccc1O [Ex. 4, 2,5-Dihydroxy-N,N-dimethylbenzaldehyde hydrazone] | tox | 46 |  |
| 0 | 95.6 | CCCCCCN=Cc1cc(O)ccc1O [Ex. 6, N-Hexyl-2,5-dihydroxybenzaldimine] | tox | 18 |  |
| 0 | 74.2 | CCN=Cc1cc(O)ccc1O [Ex. 7, N-Ethyl-2,5-hydroxybenzaldimine] | tox | 28 |  |
| 0 | 46.3 | CC(C)N=Cc1cc(O)ccc1O [Ex. 8, 2,5-Dihydroxy-N-isopropylbenzaldimine] | tox | 28 |  |
| 0 | 47.7 | Oc1ccc(O)c(C=NN2CCCCC2)c1 [Ex. 10, 2,5-Dihydroxy-N-piperidinobenzaldimine] |  |  |  |
| 0 | 12.5 | Oc1ccc(O)c(C=NN2CCOCC2)c1 [Ex. 11, 2,5-Dihydroxy-N-morpholinobenzaldimine] | tox | 17 |  |
| 0 | 2.38 | CN1CCN(N=Cc2cc(O)ccc2O)CC1 [Ex. 12, 2,5-Dihydroxy-N-(4'-methylpiperazino)benzaldimine] | tox | 21 |  |
|  | 145 to 217 | O=Cc1cc(O)ccc1O [Gentisaldehyde] |  | 16 | inhibition at 1 µg/mL (hela cells; [5]): 0% |
| 0 | 150 | Cc1cc(O)c2ccccc2c1O [Menadiol] |  |  |  |
| 61 | 44.7 | Oc1ccc(O)c(C=NC2CCCCC2)c1 [N-Cyclohexyl-2,5-dihydroxybenzaldimine] |  | 39 | inhibition at 25 µg/mL (hela cells; [6]): 64% |
| 0 | 17.4 | Oc1ccc(O)c(C=NN2CCCCCC2)c1 [N-Homopiperidino-2,5-dihydroxybenzaldimine] |  |  | EGF stimulation % inhibition at 5 μg/ml (hela cells; [4]): tox |
|  |  | O=C1C=CC(=O)c2ccccc21 [Naphthoquinone] |  |  | inhibition at 0.2 µg/mL (hela cells; 0.2 μg/ml, hela cells, EGF 0.1 nM): 11%; IC50 [2]: 1.26 µM |

| Compound | PKA % inhib. at 40 μg/ml [1] [%] | IC50 [2, 3] [µM] | EGF stimulation % inhibition at 25 μg/ml (hela cells; [6]) | inhibition at 5 µg/mL (hela cells; [4]) [%] | also measured |
| --- | --- | --- | --- | --- | --- |
| O=S(=O)([O-])c1cc(O)ccc1O.[K+] | 1 | 8.06 |  |  | inhibition at 5 µg/mL (hela cells; HeLa): 6%; inhibition at 25 µg/mL (hela cells; HeLa): 14% |
| Oc1ccc(O)c(O)c1 [1,2,4-Trihydroxybenzene] | 0 | 190 |  |  | EGF stimulation % inhibition at 5 μg/ml (hela cells; [4]): tox; inhibition at 1 µg/mL (hela cells; HeLa): 5% |
| Oc1ccc(O)c2ccccc12 [1,4-Naphthodiol] | 76 |  |  |  | EGF stimulation % inhibition at 1 μg/ml (hela cells; [5]): tox; inhibition at 0.2 µg/mL (hela cells; HeLa): 29%; IC50 [2]: 9.36 µM |
| O=C1C=CC(=O)C(Cl)=C1 [2-Chlorobenzoquinone] | 29 |  | tox |  | inhibition at 5 µg/mL (hela cells; HeLa): 29%; IC50 [2]: 9.68 µM |
| Oc1ccc(O)c(Cl)c1 [2-Chlorohydroquinone] | 0 |  | tox | 46 | IC50 [2]: 13.1 µM |
| CC(C)(C)c1cc(O)ccc1O [2-tert-Butylhydroquinone] | 22 | 5.72 |  |  | inhibition at 1 µg/mL (hela cells; HeLa): 21%; inhibition at 5 µg/mL (hela cells; HeLa): 52% |
| O=C1C=CC(=O)C=C1 [Benzoquinone] | 45 |  |  | 55 | inhibition at 1 µg/mL (hela cells; [5]): 36%; IC50 [2]: 0.463 µM |
| COC(=O)[C@H](Cc1c[nH]cn1)N=Cc1cc(O)ccc1O [Ex. 5, (S)-α-N-(2,5-Dihydroxybenzylidene)histidine methyl ester] | 0 |  |  |  | inhibition at 5 µg/mL (hela cells; HeLa): 10%; inhibition at 25 µg/mL (hela cells; HeLa): 44%; IC50 [2]: 43.7 µM |
| Oc1ccc(O)cc1 [Hydroquinone] |  | 0.908 |  |  | inhibition at 1 µg/mL (hela cells; HeLa): 29%; inhibition at 5 µg/mL (hela cells; HeLa): 43% |
| Oc1ccccc1O [Pyrocatechol] | 0 |  |  |  | inhibition at 0.2 µg/mL (hela cells; HeLa): 16%; inhibition at 1 µg/mL (hela cells; HeLa): 35%; IC50 [2]: 14.5 µM |
| O=C1C=CC(=O)C=C1.Oc1ccc(O)cc1 [Quinhydrone] | 0 |  |  |  | EGF stimulation % inhibition at 1 μg/ml (hela cells; [5]): 12%; EGF stimulation % inhibition at 5 μg/ml (hela cells; [4]): 64%; EGFRTK IC50 ([2]; A 431 membranes, 1000 nM EGF, 32 μM ATP, 15' at 30° C., max. 51 μg/ml): 0.126 µg/mL |
